Laboratory results taken from BindingDB's records for doi:10.7270/Q2T43RPN (Burnham Center For Chemical Genomics, 2012).

biological target: T1, Tyrosine-protein phosphatase non-receptor type 11 (Homo sapiens, UniProt Q06124); assay: SHP2 phosphatase inhibition, dose response, selectivity assay for STEP inhibitor project, biochemical (AID 602367)
T1 sequence (Q06124 whole entry): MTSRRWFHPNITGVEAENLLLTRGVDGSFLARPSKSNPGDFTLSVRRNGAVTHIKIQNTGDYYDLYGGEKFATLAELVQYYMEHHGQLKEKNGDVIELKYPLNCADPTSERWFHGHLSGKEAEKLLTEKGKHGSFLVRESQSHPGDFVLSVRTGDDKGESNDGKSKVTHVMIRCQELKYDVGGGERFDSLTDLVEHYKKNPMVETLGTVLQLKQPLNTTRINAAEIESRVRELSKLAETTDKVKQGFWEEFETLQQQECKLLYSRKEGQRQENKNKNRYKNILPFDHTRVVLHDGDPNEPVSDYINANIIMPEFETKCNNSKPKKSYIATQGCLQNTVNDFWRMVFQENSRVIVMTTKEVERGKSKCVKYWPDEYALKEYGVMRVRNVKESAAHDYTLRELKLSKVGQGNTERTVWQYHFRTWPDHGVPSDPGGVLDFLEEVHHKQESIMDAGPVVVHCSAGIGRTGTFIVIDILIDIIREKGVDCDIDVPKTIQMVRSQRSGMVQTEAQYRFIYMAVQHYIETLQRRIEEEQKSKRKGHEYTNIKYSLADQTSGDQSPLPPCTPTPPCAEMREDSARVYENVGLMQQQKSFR

Structure (SMILES)	IC50
CCN(CC)P(=O)(NC(=O)C(Cl)(Cl)Cl)N(CC)CC [MLS000564159]	3.91 µM
C=c1c(O)c(O)c(=C2C(=O)C(=O)C(C)C(=O)C2=O)c(O)c1O (stereo not given) [(3E)-5-hydroxy-6-methyl-3-(2,3,5-trihydroxy-4-methyl-6-oxo-1-cyclohexa-2,4-dienylidene)cyclohex-5-ene-1,2,4-trione]	< 0.16 µM
COc1ccc(OC)c(-n2c(O)c3o[nH]c(-c4ccccc4Cl)c-3c2=O)c1 [SMR000046218]	0.469 µM
S=C1N=C2C(=C3SCCS3)CCCC2C(c2ccccc2)N1 (stereo not given) [MLS000516376]	5.27 µM
CCOc1cc(CN=Nc2nc(O)c(CC(=O)O)s2)ccc1OCc1ccc(Cl)cc1Cl [2-[2-[(N''E)-N''-[4-(2,4-dichlorobenzyl)oxy-3-ethoxy-benzylidene]hydrazino]-4-keto-2-thiazolin-5-yl]acetic acid]	2.2 µM
S=C1N=C(C23CC4CC(CC(C4)C2)C3)CC(c2ccc3c(c2)OCO3)N1 (stereo not given)	15 µM
COc1ccc(CN=Nc2nc(O)c(CC(=O)O)s2)cc1OCc1ccc(Cl)cc1Cl [[2-({3-[(2,4-dichlorobenzyl)oxy]-4-methoxybenzylidene}hydrazono)-4-oxo-1,3-thiazolidin-5-yl]acetic acid]	4.42 µM

Continued, values first:

IC50	Structure (SMILES)
2.39 µM	O=C(N/N=C/C1C=CC=CC1=O)c1cccc([N+](=O)[O-])c1 (stereo not given) [MLS002667988]
58.9 µM	O=C1C(=O)N(CCCO)C(c2ccc(Br)cc2)C1C(=O)c1ccc(Br)cc1 (stereo not given) [(4E)-5-(4-bromophenyl)-4-[(4-bromophenyl)-oxidanyl-methylidene]-1-(3-oxidanylpropyl)pyrrolidine-2,3-dione]
1.11 µM	CSc1ccc(CN=Nc2ccc(S(=O)(=O)Nc3ccccc3C(=O)O)cc2[N+](=O)[O-])cc1 [MLS002245633]
